Patent US10689357B2, “N-acylethanolamine hydrolyzing acid amidase (NAAA) inhibitors and use thereof” (Northeastern University, priority 2018, dated 2020)
Structures can show the parent of a compound that is named as a salt.

target: hNAAA (Homo sapiens (Human), UniProt Q02083); test: NAAA fluorescence-based inhibition assay with PAMCA substrate; type: biochemical; settings: purified activated hNAAA, PAMCA 5 μM, pH 4.5, 37° C.
Source text: In order to have an assay method more conducive to high-throughput screening than those published for measuring the NAE hydrolyzing activity of NAAA [Proc. Natl. Acad. Sci. USA. 2009; 106(49):20966-71], the fluorogenic PEA analog N-(4-methyl coumarin)palmitamide (PAMCA), which is hydrolyzed to fluorescent 7-amino-4-methyl coumarin (AMC) and palmitic acid, was developed. [J. Proteome Res. 2012; 11(2):972-981], [PloS One. 2012; 7: e43877]. For three point concentration inhibition assays with hNAAA the following procedure was used. Purified activated NAAA (final concentration of 0.25 μg/mL) was incubated in assay buffer (100 mM citrate-phosphate buffer, pH 4.5, 3 mM DTT, 0.1% Triton X-100, 0.05% BSA, and 150 mM NaCl) made up to a total volume of 180 μL, followed by addition of the compound dissolved in 10 μL DMSO (along with DMSO neat for the control sample) with the final concentrations for each compound of 100, 10, and 1 μM, in triplicate on a 96 well plate. These samples were allowed to incubate for 15 min at room temperature and then 10 μL of a PAMCA stock solution in DMSO (final PAMCA concentration [5 μM]) was added. After 5 minutes of agitation on a shaking plate, the reaction was allowed to proceed at 37° C. for 120 minutes, with fluorescence readings taken every 10 minutes at a wavelength of 460 nm (using an excitation wavelength of 360 nm) on a Synergy HT Plate Reader using Gen5 software from Bio-Tek. The enzyme activity was calculated by converting the relative fluorescence units to AMC formed, using a standard curve of AMC.
For compounds that inhibit hNAAA in range IC50<1 μM, full inhibition curves using eight different concentrations of inhibitor (8 point assay) were generated. The assay procedure used was the same as the three point assay. For ostensibly covalent compounds (as observed by a significant decrease in the slope of a plot of fluorescence vs. time in three point screen), samples were allowed to incubate for 2 hours at 37° C., instead of 15 minutes, before addition of 10 μL of a PAMCA stock solution in DMSO for a final PAMCA concentration of 5 μM. After 5 minutes of agitation on a shaking plate, the reaction was allowed to proceed at 37° C. for 120 minutes. Inhibition constants were calculated using pro Fit software (Quantum Soft, Uetikon am See, Switzerland) and a Levenberg-Marquardt algorithm.

Sequence of hNAAA (Q02083 29-125): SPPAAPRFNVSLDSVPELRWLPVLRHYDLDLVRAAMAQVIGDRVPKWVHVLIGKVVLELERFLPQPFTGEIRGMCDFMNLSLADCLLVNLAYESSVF
Sequence of hNAAA (Q02083 126-359): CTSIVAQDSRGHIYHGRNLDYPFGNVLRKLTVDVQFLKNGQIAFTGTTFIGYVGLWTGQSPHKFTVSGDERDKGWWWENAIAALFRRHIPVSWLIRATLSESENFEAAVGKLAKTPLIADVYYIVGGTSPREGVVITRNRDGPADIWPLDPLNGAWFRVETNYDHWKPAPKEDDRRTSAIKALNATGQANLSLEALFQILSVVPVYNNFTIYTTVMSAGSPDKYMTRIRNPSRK

**Q.** With `COc1ccc(C23CC(C(=O)N[C@H]4C[C@@H](N=C=S)C4)(C2)C3)cc1` [Example 37, N-((1s,3s)-3-isothiocyanatocyclobutyl)-3-(4-methoxyphenyl)bicyclo[1.1.1]pentane-1-carboxamide] as the compound, how does the IC50 read?
**A.** 110 to 1000 nM

**Q.** With `COc1ccc(-c2cnc(C(=O)N[C@H]3C[C@@H](N=C=S)C3)c(N3CCC3)c2)cc1` [Example 38, 3-(Azetidin-1-yl)-N-((1s,3s)-3-isothiocyanatocyclobutyl)-5-(4-methoxyphenyl)picolinamide] as the compound, how does the IC50 read?
**A.** 110 to 1000 nM

**Q.** For `COc1ccc(-c2ccc(C(C)O[C@H]3C[C@@H](N=C=S)C3)nc2)cc1` (some centres unmarked) [Example 39, 2-(1-((1s,3s)-3-Isothiocyanatocyclobutoxy)ethyl)-5-(4-methoxyphenyl)pyridine], which IC50 is on record?
**A.** 10 to 100 nM

**Q.** For `COc1ccc(-c2ccc(C(C)O[C@H]3C[C@@H](N=C=S)C3)nc2)cc1F` (some centres unmarked) [Example 40, 5-(3-Fluoro-4-methoxyphenyl)-2-(1-((1s,3s)-3-isothiocyanatocyclobutoxy)ethyl)pyridine], which IC50 is on record?
**A.** 110 to 1000 nM

**Q.** With `COc1ccc([C@H]2C[C@@H](C(=O)N[C@H]3C[C@@H](N=C=S)C3)C2)cc1` [Example 41, (1s,3S)—N-((1s,3S)-3-Isothiocyanatocyclobutyl)-3-(4-methoxyphenyl) cyclobutane-1-carboxamide] as the compound, how does the IC50 read?
**A.** 10 to 100 nM

**Q.** Which IC50 does the source give for `COc1ccc(-c2ccc(CO[C@H]3C[C@@H](N=C=S)C3)nc2)nc1` [Example 42, 6′-(((1s,3s)-3-Isothiocyanatocyclobutoxy)methyl)-5-methoxy-2,3′-bipyridine succinate] here?
**A.** 10 to 100 nM

**Q.** Which IC50 does the source give for `COc1ccc(-c2ccc(CO[C@H]3C[C@@H](N=C=S)C3)nc2)cc1F` [Example 43, 5-(3-Fluoro-4-methoxyphenyl)-2-(((1s,3s)-3-isothiocyanatocyclobutoxy)methyl)pyridine citrate] here?
**A.** 10 to 100 nM

**Q.** With “(1r, 3r)-3-Isothiocyanatocyclobutyl 5-(4-methoxyphenyl)picolinate [Example 21]” as the compound, how does the IC50 read?
**A.** 10 to 100 nM
